According to US11142501B2, “Prodrugs of monomethyl fumarate” (IXCHEL PHARMA, LLC, priority 2019, dated 2021):
Where a name gives a salt, the structure may show the parent alone.

What was measured:
Solubility = type: physicochemical; conditions: water; compared with monomethyl fumarate
[1] = Rat plasma conversion (ex-vivo); type: in vitro ADME
[2] = Stability of prodrugs on storage at RT and RF; type: physicochemical; conditions: in % (unit assumed); for Stability, value at 0 DAY: 0 day (14 Nov. 2018), dissolved in acetonitrile for analysis; for Stability, value at 7 DAY, RT / Stability, value at 15 DAY, RT: storage at room temp/25° C.; for Stability, value at 7 DAY, RT / Stability, value at 7 DAY, RF / Stability, value at 15 DAY, RT / Stability, value at 15 DAY, RF: acetonitrile for analysis; for Stability, value at 7 DAY, RF / Stability, value at 15 DAY, RF: storage under refrigeration/4° C.
Description: Compounds dissolved in ACN for analysis RT: Room temp/25° C. RF: Refrigeration/4° C.

[3] = Oral (PO) pharmacokinetics study in SD rat; type: in vivo
Description: Exemplary compounds of the present invention were subjected to oral (PO) Pharmacokinetics (PK) study in SD rat and data was compared with parent MMF. 6 overnight fasted male SD rats were dosed with MMF dose of 10 mpk and test compounds at the desired dose level of 10 mpk equivalent of MMF by PO route. Dosing vehicle used was MQ water. Blood was collected at different time points by retro orbital route. Plasma samples were stored at −80° C. for LC-MS analysis. Animals were sacrificed post final blood collection. Dosing and collection was done as per the in vivo protocol given below. PK analysis was done using LC-MS (ABI3200). Data analysis was performed using PRISM software to determine PK parameters such Cmax (the maximum (or peak) serum concentration that a drug achieves in a specified compartment or test area of the body after the drug has been administrated and before the administration of a second dose), Tmax (time at which the Cmax is observed) AUC (definite integral in a plot of drug concentration in blood plasma vs. time), MRT (Mean Residence Time) and t1/2 (The time required for one half of the total amount of a particular substance in a biological system to be degraded by biological processes when the rate of removal is nearly exponential)

| SMILES | Solubility (Solubility) | Rat plasma conversion [1] | Stability, value at 0 DAY [2] | Stability, value at 7 DAY, RT [2] | Stability, value at 7 DAY, RF [2] | Stability, value at 15 DAY, RT [2] | Stability, value at 15 DAY, RF [2] | pharmacokinetics in delivery of monomethyl fumarate (MMF) in comparison with direct administration of MMF ([3]; FIG. 1 legend, in words) | AUC in rat plasma as compared to the parent drug MMF ([3]; SD rat, PO, in words) | T1/2 in rat plasma as compared to the parent drug MMF ([3]; SD rat, PO, in words) | conversion in vivo ([3]; in vivo, rat) |
| --- | --- | --- | --- | --- | --- | --- | --- | --- | --- | --- | --- |
| COC(=O)/C=C/C(=O)O [MMF, monomethyl fumarate] | highly soluble |  |  |  |  |  |  |  |  |  |  |
| COC(=O)/C=C/C(=O)OC[n+]1cccc(C(N)=O)c1.[I-] [SPR11574, (E)-3-carbamoyl-1-(((4-methoxy-4-oxobut-2-enoyl)oxy)methyl) pyridin-1-ium iodide] |  | convert instantly | 97.81 | 97.61 | 97.61 | 97.21 | 97.95 |  |  |  |  |
| COC(=O)/C=C/C(=O)OCOC(=O)c1cccnc1 [SPR11577, methyl((nicotinoyloxy) methyl)fumarate] |  | convert instantly | 99.35 | 99.79 | 99.89 | 100 | 100 |  |  |  |  |

Now from value to molecule:

| Solubility (Solubility) | Rat plasma conversion [1] | Stability, value at 0 DAY [2] | Stability, value at 7 DAY, RT [2] | Stability, value at 7 DAY, RF [2] | Stability, value at 15 DAY, RT [2] | Stability, value at 15 DAY, RF [2] | pharmacokinetics in delivery of monomethyl fumarate (MMF) in comparison with direct administration of MMF ([3]; FIG. 1 legend, in words) | AUC in rat plasma as compared to the parent drug MMF ([3]; SD rat, PO, in words) | T1/2 in rat plasma as compared to the parent drug MMF ([3]; SD rat, PO, in words) | conversion in vivo ([3]; in vivo, rat) | SMILES |
| --- | --- | --- | --- | --- | --- | --- | --- | --- | --- | --- | --- |
|  | convert instantly | 97.7 | 97.61 | 97.82 | 97.06 | 97.66 | enhanced | better enhanced | better enhanced |  | CNC(=O)c1ccc[n+](COC(=O)/C=C/C(=O)OC)c1.[I-] [SPR11575, (E)-1-(((4-methoxy-4-oxobut-2-enoyl)oxy)methyl)-3-(methylcarbamoyl) pyridin-1-ium iodide] |
|  | convert instantly | 97.68 | 96.97 | 97.7 | 96.28 | 97.82 |  |  |  |  | COC(=O)/C=C/C(=O)OC[n+]1cccc(C(=O)N(C)C)c1.[I-] [SPR11576, (E)-3-(dimethylcarbamoyl)-1-(((4-methoxy-4-oxobut-2-enoyl)oxy)methyl)pyridin-1-ium iodide] |
|  | doesn't convert completely |  |  |  |  |  |  |  |  | doesn't convert completely | COC(=O)/C=C/C(=O)OCOC(=O)c1ccc[n+](C)c1.[I-] [SPR11578, (E)-3-((((4-methoxy-4-oxobut-2-enoyl)oxy)methoxy)carbonyl)-1-methylpyridin-1-ium iodide] |
